The results in this text go back to ChEMBL document CHEMBL1201862, “PubChem BioAssay data set” (2004).

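Grown in 96-well plates, cells were treated for 48 hours with each compound at five concentrations. Insufficient inhibition: endpoint recorded as highest concentration tested. Abbreviation: GI50, concentration required for 50% inhibition of growth.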 Active and inactive are the calls of the source. Cut-off read from the data, not from the text of the source: active = GI50 up to about 1.1 µM and inactive = higher.

Test systems include A498; A549; ACHN; DU-145; Hs-578T; MOLT-4; Malme-3M; NCI-H226; NCI-H522; OVCAR-8; SK-MEL-28; T47D; U-251; K562; LOX IMVI; SK-MEL-2; MCF7.
Test in all cases: NCI tumour cell line growth inhibition, 48 h

Regarding `O=C(/C=C/c1cccs1)c1ccc(C(=O)/C=C/c2cccs2)cc1`, the GI50 with A498, in the test on A549, in the test on ACHN, in the test on DU-145, with Hs-578T and in the test with MOLT-4 was > 100 µM (inactive) throughout. The GI50 in the test with Malme-3M, in the test on NCI-H226, in the test on NCI-H522, with OVCAR-8, with SK-MEL-28 and in the test with T47D was > 100 µM (inactive) in each case. Also, the GI50 in the test with U-251 was > 100 µM (inactive).

For the molecule `COc1ccc(C2=NN(C(=O)c3cccnc3)C(O)(c3cc(F)c(Cl)cc3Cl)C2)cc1OC` (stereo unspecified), the GI50 in the test with A549 is 20.4 µM (inactive); in the test on ACHN, 21.3 µM (inactive); with DU-145, 27.9 µM (inactive); in the test with Hs-578T, 19.4 µM (inactive); with K562, 17.4 µM (inactive); with LOX IMVI, 13.9 µM (inactive). For the same molecule, the GI50 is 8.97 µM (inactive) in the test with MOLT-4; 22.6 µM (inactive) with Malme-3M; 12.8 µM (inactive) with NCI-H226; 13.8 µM (inactive) in the test with NCI-H522; 14.5 µM (inactive) in the test with OVCAR-8; 19.5 µM (inactive) in the test with SK-MEL-28. The values for the GI50 in the test on SK-MEL-2, with T47D and in the test on U-251 were 14.8 µM (inactive), 24 µM (inactive) and 13.8 µM (inactive), respectively.

In the case of `COC1C(O)C(C)OC(O[C@@H]2C[C@H]3CC[C@@H]4[C@H](CC[C@]5(C)[C@@H](C6=CC(=O)OC6)CC[C@]45O)[C@@]3(C)[C@H](O)C2)C1O` (stereo partly specified), the GI50 in the test on A498 was 0.0525 µM (active); with A549 it was < 0.0221 µM (active); in the test with ACHN, < 0.0212 µM (active); in the test on DU-145 it was < 0.0302 µM (active); in the test on Hs-578T, 0.182 µM (active); in the test on K562, 0.0785 µM (active). The GI50 with LOX IMVI is < 0.0362 µM (active); in the test with MOLT-4 it was < 0.0162 µM (active); in the test with Malme-3M it was < 0.0396 µM (active); with NCI-H226, 0.151 µM (active); in the test on NCI-H522 it was < 0.01 µM (active); in the test on OVCAR-8, 0.0472 µM (active). The GI50 was 0.216 µM (active) in the test on SK-MEL-28, 0.114 µM (active) in the test with SK-MEL-2, 0.111 µM (active) in the test on T47D and 0.0849 µM (active) in the test on U-251.

With `Cc1ccc(SCC(CF)OC(C)n2cnc3c(O)nc(N)nc32)cc1` (stereo unspecified), the GI50 in the test on A549 is > 100 µM (inactive); in the test with ACHN, 55.6 µM (inactive); in the test with DU-145, > 100 µM (inactive); in the test with Hs-578T, > 100 µM (inactive); in the test on LOX IMVI, > 100 µM (inactive); with MCF7 it was 34.9 µM (inactive). In addition, the GI50 with MOLT-4 was 50.5 µM (inactive); with Malme-3M, > 100 µM (inactive); in the test with NCI-H226 it was > 100 µM (inactive); in the test on NCI-H522 it was > 100 µM (inactive); with OVCAR-8 it was > 100 µM (inactive); in the test on SK-MEL-28, > 100 µM (inactive). Moreover, the results for the GI50 in the test with SK-MEL-2, with T47D and with U-251 were > 100 µM (inactive), 49.1 µM (inactive) and > 100 µM (inactive), respectively.

As for `c1ccc2c(CSCc3cccc4ccccc34)cccc2c1`, the GI50 in the test on A498 is > 100 µM (inactive); in the test with A549 it was > 100 µM (inactive); with ACHN it was > 100 µM (inactive); in the test on DU-145, > 100 µM (inactive); with Hs-578T it was > 100 µM (inactive); in the test with K562, 76.7 µM (inactive). For the same molecule, the GI50 in the test with LOX IMVI was > 100 µM (inactive); in the test on MOLT-4 it was 34.5 µM (inactive); with Malme-3M, 58.9 µM (inactive); in the test with NCI-H226 it was > 100 µM (inactive); in the test with NCI-H522, 99.3 µM (inactive); in the test with OVCAR-8, > 100 µM (inactive). The GI50 in the test with SK-MEL-28 was > 100 µM (inactive); with SK-MEL-2, > 100 µM (inactive); with T47D, 53.6 µM (inactive); in the test with U-251 it was 85.1 µM (inactive).

`C1=CN2C[n+]3ccc4ccccc4c3N=C2c2ccccc21`: the GI50 in the test on A549 was 1.75 µM (inactive); in the test with ACHN, 23.3 µM (inactive); in the test on DU-145 it was 6.62 µM (inactive); with Hs-578T, 3.92 µM (inactive); in the test on K562 it was 1.24 µM (inactive); in the test with MCF7, 0.929 µM (active). Moreover, the GI50 was 1.91 µM (inactive) in the test on MOLT-4; 0.632 µM (active) in the test with Malme-3M; 0.622 µM (active) in the test with NCI-H522; 4.59 µM (inactive) in the test on OVCAR-8; 2.67 µM (inactive) in the test on SK-MEL-2; 0.671 µM (active) in the test with T47D. For the same molecule, in the test on U-251, the GI50 is 0.356 µM (active).

With `CC1(C)OCC(C2OC3OC(C)(C)OC3C2c2ccccc2)O1` (stereo unspecified), the GI50 with A549 is 42.8 µM (inactive); in the test on ACHN it was 51.9 µM (inactive); with DU-145 it was 45.6 µM (inactive); with Hs-578T it was 20.7 µM (inactive); in the test with K562, 30.2 µM (inactive); with LOX IMVI, 32.1 µM (inactive). The GI50 in the test on MCF7 was 50.7 µM (inactive); in the test on MOLT-4 it was 22.4 µM (inactive); in the test on Malme-3M, 42.2 µM (inactive); with NCI-H226, 22.4 µM (inactive); in the test with NCI-H522 it was 37.7 µM (inactive); with OVCAR-8, 43 µM (inactive). Further, the GI50 in the test with SK-MEL-28 is 41.5 µM (inactive); in the test on SK-MEL-2 it was 22.1 µM (inactive); in the test with T47D it was 38.2 µM (inactive); in the test on U-251, 78 µM (inactive).

For `CC(=O)On1c(-c2ccccc2-c2nc3ccccc3n2OC(C)=O)nc2ccccc21`, the GI50 was 41.3 µM (inactive) in the test on A549; 61.8 µM (inactive) in the test on ACHN; 49.7 µM (inactive) in the test with DU-145; 37.8 µM (inactive) in the test on Hs-578T; 13.9 µM (inactive) in the test with K562; 18.5 µM (inactive) in the test on LOX IMVI. The GI50 in the test with MCF7 is 26.7 µM (inactive); with MOLT-4, 11.3 µM (inactive); in the test with Malme-3M, 15.1 µM (inactive); in the test on NCI-H226 it was 25.9 µM (inactive); in the test with NCI-H522, 18.5 µM (inactive); in the test on OVCAR-8 it was 36.5 µM (inactive). Moreover, the GI50 is 29.3 µM (inactive) with SK-MEL-28, 22.4 µM (inactive) in the test on SK-MEL-2, 17.7 µM (inactive) in the test with T47D and 12.8 µM (inactive) in the test with U-251.

As to `CN(NC(=O)c1ccc(Cl)cc1)C1=NCCCCN1`, the GI50 in the test on A498, in the test with A549, in the test with ACHN, in the test on Hs-578T, in the test on K562 and in the test on LOX IMVI was > 100 µM (inactive) throughout. Also, the GI50 in the test on MCF7, in the test with MOLT-4, in the test with Malme-3M, with NCI-H226, in the test with NCI-H522 and with OVCAR-8 was > 100 µM (inactive) in each case. Moreover, the GI50 with SK-MEL-28, in the test on SK-MEL-2, in the test on T47D and with U-251 was > 100 µM (inactive) in each case.
